In patent US20060252710A1, “6-11 Bridged oxime erythromycin derivatives” (priority 2005, published 2006):
Values after ≈ are worked out from the molar mass of the structure shown. Like-named read-outs stand apart in the source and are kept apart here.

Columns and labels:
Assay in all cases: MIC by micro-dilution method
Format in all cases: cell-based
[1] = tested on: H. influenzae 33929; settings: Haemophilus influenzae
Method: (§1) Antibacterial activity studies may be carried out using suitable assays as are known in the art. Susceptibility tests can be used to quantitatively measure the in vitro activity of an antimicrobial agent against a given bacterial isolate. Compounds are tested for in vitro antibacterial activity by a micro-dilution method. Minimal Inhibitory Concentration (MIC) is determined in 96 well microtiter plates utilizing the appropriate Mueller Hinton Broth medium (CAMHB) for the observed bacterial isolates. Antimicrobial agents are serially diluted (2-fold) in DMSO to produce a concentration range from about 64 μg/ml to about 0.03 μg/ml. The diluted compounds (2 μl/well) are then transferred into sterile, uninoculated CAMHB (0.2 mL) by use of a 96 fixed tip-pipeting station. The inoculum for each bacterial strain is standardized to 5×10^5 CFU/mL by optical comparison to a 0.5 McFarland turbidity standard. The plates are inoculated with 10 μI/well of adjusted bacterial inoculum. The 96 well plates are covered and incubated at 35+/−2° C. for 24 hours in ambient air environment. Following incubation, plate wells are visually examined by Optical Density measurement for the presence of growth (turbidity). The lowest concentration of an antimicrobial agent at which no visible growth occurs is defined as the MIC.
(§2) All in vitro testing follows the guidelines described in the Approved Standards M7-A4 protocol, published by the National Committee for Clinical Laboratory Standards (NCCLS).
(§3) The values in the table are minimum inhibition concentration (MIC) and are expressed as ug/mL. Assays for MIC are described above.

[2] = tested on: S. aureus 27660; settings: Staphylococcus aureus
Method: as §1, §2, §3

[3] = tested on: S. aureus 29213; settings: Staphylococcus aureus
Method: as §1, §2, §3

[4] = tested on: S. aureus 33591; settings: Staphylococcus aureus
Method: as §1, §2, §3

[5] = tested on: S. pneumoniae 700906; settings: Streptococcus pneumoniae
Method: as §1, §2, §3

[6] = tested on: S. pneumoniae 7701; settings: Streptococcus pneumoniae
Method: as §1, §2, §3

[7] = tested on: S. pyogenes 1323; settings: Streptococcus pyogenes
Method: as §1, §2, §3

[8] = tested on: S. pyogenes 2912; settings: Streptococcus pyogenes
Method: as §1, §2, §3

[9] = Table V, compounds of this invention, read-out: minimum inhibition concentration H. influenzae 33929
[10] = Table V, compounds of this invention, read-out: minimum inhibition concentration S. aureus 27660
[11] = Table V, compounds of this invention, read-out: minimum inhibition concentration S. aureus 29213
[12] = Table V, compounds of this invention, read-out: minimum inhibition concentration S. aureus 33591
[13] = Table V, compounds of this invention, read-out: minimum inhibition concentration S. pneumoniae 700906
[14] = Table V, compounds of this invention, read-out: minimum inhibition concentration S. pneumoniae 7701
[15] = Table V, compounds of this invention, read-out: minimum inhibition concentration S. pyogenes 1323
[16] = Table V, compounds of this invention, read-out: minimum inhibition concentration S. pyogenes 2912
[17] = Table IV, species from U.S. Pat. No. 6,878,691 and US 2004/0053861, read-out: minimum inhibition concentration (MIC) H. influenzae 33929
[18] = Table IV, species from U.S. Pat. No. 6,878,691 and US 2004/0053861, read-out: minimum inhibition concentration (MIC) S. aureus 27660
[19] = Table IV, species from U.S. Pat. No. 6,878,691 and US 2004/0053861, read-out: minimum inhibition concentration (MIC) S. aureus 29213
[20] = Table IV, species from U.S. Pat. No. 6,878,691 and US 2004/0053861, read-out: minimum inhibition concentration (MIC) S. aureus 33591
[21] = Table IV, species from U.S. Pat. No. 6,878,691 and US 2004/0053861, read-out: minimum inhibition concentration (MIC) S. pneumoniae 700906
[22] = Table IV, species from U.S. Pat. No. 6,878,691 and US 2004/0053861, read-out: minimum inhibition concentration (MIC) S. pneumoniae 7701
[23] = Table IV, species from U.S. Pat. No. 6,878,691 and US 2004/0053861, read-out: minimum inhibition concentration (MIC) S. pyogenes 1323
[24] = Table IV, species from U.S. Pat. No. 6,878,691 and US 2004/0053861, read-out: minimum inhibition concentration (MIC) S. pyogenes 2912

| Compound | MIC [1, 9] | MIC [2, 10] | MIC [3, 11] | MIC [4, 12] | MIC [5, 13] | MIC [6, 14] | MIC [7, 15] | MIC [8, 16] | MIC [1, 17] | MIC [2, 18] | MIC [3, 19] | MIC [4, 20] | MIC [5, 21] | MIC [6, 22] | MIC [7, 23] | MIC [8, 24] |
| --- | --- | --- | --- | --- | --- | --- | --- | --- | --- | --- | --- | --- | --- | --- | --- | --- |
| CC[C@H]1OC(=O)[C@H](C)C(=O)[C@H](C)[C@@H](O[C@@H]2O[C@H](C)C[C@H](N(C)C)[C@H]2O)[C@@]2(C)C[C@@H](C)/C(=N\C(C)=O)[C@H](C)[C@@H](OC/C(=N\OCc3ccc4nccnc4c3)CO2)[C@]1(C)O [Compound A2] |  |  |  |  |  |  |  |  | 16 µg/mL (≈ 19.4 µM) | 0.25 µg/mL (≈ 0.303 µM) | 0.5 µg/mL (≈ 0.605 µM) | > 64 µg/mL | 0.25 µg/mL (≈ 0.303 µM) | 0.5 µg/mL (≈ 0.605 µM) | 1 µg/mL (≈ 1.21 µM) | 16 µg/mL (≈ 19.4 µM) |
| CC[C@H]1OC(=O)[C@H](C)C(=O)[C@H](C)[C@@H](O[C@@H]2O[C@H](C)C[C@H](N(C)C)[C@H]2O)[C@@]2(C)C[C@@H](C)/C(=N\C(C)=O)[C@H](C)[C@@H](OC/C(=N\OCc3nccc4ccccc34)CO2)[C@]1(C)O [Compound A1] |  |  |  |  |  |  |  |  | 8 µg/mL (≈ 9.7 µM) | 0.13 µg/mL (≈ 0.158 µM) | 0.25 µg/mL (≈ 0.303 µM) | > 64 µg/mL | 0.25 µg/mL (≈ 0.303 µM) | 0.5 µg/mL (≈ 0.606 µM) | 0.5 µg/mL (≈ 0.606 µM) | 8 µg/mL (≈ 9.7 µM) |
| CC[C@H]1OC(=O)[C@H](C)C(=O)[C@H](C)[C@@H](O[C@@H]2O[C@H](C)C[C@H](N(C)C)[C@H]2O)[C@@]2(C)C[C@@H](C)/C(=N\C(C)=O)[C@H](C)[C@@H](OC/C(=N\OCc3cn4ccncc4n3)CO2)[C@]1(C)O [Compound A3] |  |  |  |  |  |  |  |  | 8 µg/mL (≈ 9.82 µM) | 0.25 µg/mL (≈ 0.307 µM) | 0.25 µg/mL (≈ 0.307 µM) | > 64 µg/mL | 0.13 µg/mL (≈ 0.16 µM) | 2 µg/mL (≈ 2.45 µM) | 16 µg/mL (≈ 19.6 µM) | 32 µg/mL (≈ 39.3 µM) |
| CC[C@H]1OC(=O)[C@H](C)[C@@H](OC2C[C@@](C)(OC)[C@@H](OC(C)=O)[C@H](C)O2)[C@H](C)[C@@H](O[C@@H]2O[C@H](C)C[C@H](N(C)C)[C@H]2O)[C@@]2(C)C[C@@H](C)C(=O)[C@H](C)[C@@H](OCC(=Cc3cnc4ccccc4c3)CO2)[C@]1(C)O (stereo partly shown) [Compound A4] |  |  |  |  |  |  |  |  | > 64 µg/mL |  |  |  |  | 8 µg/mL (≈ 8.38 µM) | 64 µg/mL (≈ 67 µM) | 64 µg/mL (≈ 67 µM) |
| CC[C@H]1OC(=O)[C@H](C)[C@@H](O)[C@H](C)[C@@H](O[C@@H]2O[C@H](C)C[C@H](N(C)C)[C@H]2O)[C@@]2(C)C[C@@H](C)C(=N)[C@H](C)[C@@H](OC/C(=N\OCc3ccccc3)CO2)[C@]1(C)O [Compound A5] |  |  |  |  |  |  |  |  | > 64 µg/mL |  |  | > 64 µg/mL |  | 2 µg/mL (≈ 2.73 µM) | 64 µg/mL (≈ 87.2 µM) | > 64 µg/mL |
| CC[C@H]1OC(=O)[C@H](C)[C@@H](OC(=O)Cc2cccnc2)[C@H](C)[C@@H](O[C@@H]2O[C@H](C)C[C@H](N(C)C)[C@H]2O)[C@@]2(C)C[C@@H](C)/C(=N\C(C)=O)[C@H](C)[C@@H](OC/C(=C\C=C\c3ccccc3)CO2)[C@]1(C)O [Compound A6] |  |  |  |  |  |  |  |  | > 64 µg/mL | 1 µg/mL (≈ 1.12 µM) | 1 µg/mL (≈ 1.12 µM) | 16 µg/mL (≈ 18 µM) | 8 µg/mL (≈ 8.99 µM) | 1 µg/mL (≈ 1.12 µM) | 2 µg/mL (≈ 2.25 µM) | 8 µg/mL (≈ 8.99 µM) |

More lines, now with the values ahead:

| MIC [1, 9] | MIC [2, 10] | MIC [3, 11] | MIC [4, 12] | MIC [5, 13] | MIC [6, 14] | MIC [7, 15] | MIC [8, 16] | MIC [1, 17] | MIC [2, 18] | MIC [3, 19] | MIC [4, 20] | MIC [5, 21] | MIC [6, 22] | MIC [7, 23] | MIC [8, 24] | Compound |
| --- | --- | --- | --- | --- | --- | --- | --- | --- | --- | --- | --- | --- | --- | --- | --- | --- |
| 2 µg/mL (≈ 2.48 µM) | ≤ 0.06 µg/mL | ≤ 0.06 µg/mL | > 64 µg/mL | 1 µg/mL (≈ 1.24 µM) | ≤ 0.06 µg/mL | 0.25 µg/mL (≈ 0.311 µM) | 4 µg/mL (≈ 4.97 µM) |  |  |  |  |  |  |  |  | CC[C@H]1OC(=O)[C@H](C)C(=O)[C@H](C)[C@@H](O[C@@H]2O[C@H](C)C[C@H](N(C)C)[C@H]2O)[C@@]2(C)C[C@@H](C)C(=O)[C@H](C)[C@@H](OC/C(=N\OCc3ccc4nc(N)sc4c3)CO2)[C@]1(C)O [Compound B1] |
| 4 µg/mL (≈ 4.82 µM) | 0.125 µg/mL (≈ 0.151 µM) | 0.125 µg/mL (≈ 0.151 µM) | 32 µg/mL (≈ 38.6 µM) | 0.125 µg/mL (≈ 0.151 µM) | 0.125 µg/mL (≈ 0.151 µM) | 0.5 µg/mL (≈ 0.602 µM) | 1 µg/mL (≈ 1.2 µM) |  |  |  |  |  |  |  |  | CC[C@H]1OC(=O)[C@H](C)C(=O)[C@H](C)[C@@H](O[C@@H]2O[C@H](C)C[C@H](N(C)C)[C@H]2O)[C@@]2(C)C[C@@H](C)/C(=N\C(C)=O)[C@H](C)[C@@H](OC/C(=N\OCc3ccc4oc(N)nc4c3)CO2)[C@]1(C)O [Compound B4] |
| 2 µg/mL (≈ 2.54 µM) | ≤ 0.06 µg/mL | ≤ 0.06 µg/mL | 32 µg/mL (≈ 40.6 µM) | 0.25 µg/mL (≈ 0.317 µM) | 0.125 µg/mL (≈ 0.158 µM) | 0.5 µg/mL (≈ 0.634 µM) | 4 µg/mL (≈ 5.07 µM) |  |  |  |  |  |  |  |  | CC[C@H]1OC(=O)[C@H](C)C(=O)[C@H](C)[C@@H](O[C@@H]2O[C@H](C)C[C@H](N(C)C)[C@H]2O)[C@@]2(C)C[C@@H](C)C(=O)[C@H](C)[C@@H](OC/C(=N\OCc3ccc4oc(N)nc4c3)CO2)[C@]1(C)O [Compound B3] |
| 2 µg/mL (≈ 2.36 µM) | ≤ 0.06 µg/mL | 0.125 µg/mL (≈ 0.147 µM) | > 64 µg/mL | 0.5 µg/mL (≈ 0.59 µM) | 0.125 µg/mL (≈ 0.147 µM) | 0.5 µg/mL (≈ 0.59 µM) | 2 µg/mL (≈ 2.36 µM) |  |  |  |  |  |  |  |  | CC[C@H]1OC(=O)[C@@](C)(F)C(=O)[C@H](C)[C@@H](O[C@@H]2O[C@H](C)C[C@H](N(C)C)[C@H]2O)[C@@]2(C)C[C@@H](C)/C(=N\C(C)=O)[C@H](C)[C@@H](OC/C(=N\OCc3ccc4onc(N)c4c3)CO2)[C@]1(C)O [Compound B2] |
